Source: publication PMC4171606, “A novel copper(I) complex induces ER-stress-mediated apoptosis and sensitizes B-acute lymphoblastic leukemia cells to chemotherapeutic agents” (Oncotarget, 2014)
pIC50: −log10 of the molar value.

How the values were obtained:
[1] = system: 26S proteasome semipurified from RS4;11 cells, chymotrypsin like (CT) activity; assay: Proteasome activity on semipurified cell extract (fluorogenic substrate); format: biochemical, human; details: RS4;11 extract, 60 min at 37 °C, cell-free
Text: (§1) The 26S proteasome is a multicatalytic protease responsible for the regulated intracellular protein degradation. Its function is mediated by three main catalytic activities i) chymotrypsin like (CT) ii) Trypsin-like (T) and iii) peptidyl glutamyl peptide hydrolyzing (PGPH). To evaluate the effect of CP on the proteasome activity in leukemia cells, we tested increasing concentrations of the compound on semipurified 26S proteasome extract from RS4;11 and SEM cells, and measured the functioning of each individual proteolytic activity under cell-free condition.
(§2) FIGURE 3 CP treatment affects Ubiquitin Proteasome System (UPS) 26S proteasome (100 μg) semipurified from (A) SEM and (B) RS4;11 cells was incubated for 60 min at 37 °C with CP at different concentrations. Chymotrypsin (CT), trypsin (T) and peptidyl glutamyl peptide hydrolyzing (PGPH) catalytic activity were measured fluorimetrically (excitation 370, nm emission 460) by following the release of free AMC from synthetic substrates N-Suc-Leu-Leu-Val-Tyr-AMC, Boc-Gln-Ala-Arg-AMC and Z-Leu-Leu-Glu-AMC, specific for CT, T and PGPH activity, respectively. (C) Cells were incubated with CP 2.5 μM for the indicated times and then western blot analyses were performed to evaluate Ubiquitin accumulation.
(§3) RS4;11 and SEM cells were homogenized in a lysis buffer (50 mM Tris-HCl, pH 7.5, 250 mM sucrose, 5 mM MgCl2, 1 mM DTT, 0.5 mM EDTA) and ultracentrifuged for 2 h at 300,000 g. Total protein content was estimated with BioRad protein assay (BioRad) and 100 μg of protein aliquots were incubated for 60 min at 37°C with CP at different concentrations. Afterwards, fluorogenic proteasome substrates (N-Suc-Leu-Leu-Val-Tyr-7-amido-4-methylcoumarin (AMC) for chymotripsin (CT), Boc-Gln-Ala-Arg-AMC for tripsin (T) and Z-Leu-Leu-Glu-AMC for peptidyl glutamyl peptide hydrolyzing (PGPH) were added and the substrate hydrolysis was measured after 30 min by monitoring the release of Tyr-7-amido-4-methylcoumarin (AMC) using a Varian Cary Eclipse (Varian) spectrofluorometer (excitation at 370 nm, emission at 460 nm).

[2] = system: 26S proteasome semipurified from RS4;11 cells, peptidyl glutamyl peptide hydrolyzing (PGPH) activity; assay: as above; format: biochemical, human; details: RS4;11 extract, 60 min at 37 °C, cell-free
Text: as §1, §2, §3

[3] = system: 26S proteasome semipurified from SEM cells, Trypsin-like (T) activity; assay: as above; format: biochemical, human; details: 60 min at 37 °C, cell-free
Text: as §1, §2, §3

[4] = system: 26S proteasome semipurified from SEM cells, chymotrypsin like (CT) activity; assay: as above; format: biochemical, human; details: 60 min at 37 °C, cell-free
Text: as §1, §2, §3

SEM and RS4;11 cells = assay: Annexin-V-FITC/PI flow cytometry (apoptosis); format: cell-based, human; details: CP 2.5 μM, both cell lines
Description: FIGURE 1 CP uptake and effects on cell cycle and apoptosis induction A) RS4;11, SEM, THP1, Jurkat cell lines and healthy PBMC were incubated with 6.25, 12.5 and 25 μM of CP for 24 h. The intracellular accumulation of CP was detected by GF-AAS analysis. B) SEM and RS4;11 cells were treated with the indicated concentrations of CP for 24 h, cell cycle distribution and Sub-G1 contents were analyzed by flow cytometry after cell staining with PI. The percentages of each phase of the cell cycle (G1, S, G2/M) were calculated on living cells whereas the percentages of cells with hypodiploid DNA content peak (subG1) was referred to cell population characterized by the appearance of subG1 peak. C) SEM and RS4;11 cells were incubated with 2.5 μM CP for the indicated times and analyzed by flow cytometry after double staining with Annexin-V-FITC and PI. Data are represented as mean ± S.E.M. of three independent experiments.
To characterize the mode of cell death induced by CP, we performed a cytofluorimetric analysis using PI and Annexin-V-FITC, which stain DNA and phosphatidylserine residues, respectively. After a time course of 1.5, 3, 6, 12 and 24 h of drug treatment (2.5 μM), SEM and RS4;11 cells were labeled with the two dyes and analyzed by flow cytometry. […]

CHOP = assay: Western blot, ER stress marker CHOP; format: cell-based, human; details: SEM and RS4;11, CP 2.5 μM
Description: (§4) Moreover we found an increase in CHOP expression starting from 3 h of CP treatment. […] Whilst GRP78, due to its chaperon activity, exerts a protective function, CHOP promotes ER-stress cell death, thus the rapid activation of pro-death signals and the late activation of pro-survival chaperone GRP78 could explain the commitment toward apoptosis induced by CP. Moreover, in unresolvable stress conditions, an increased CHOP expression has been correlated to the induction of the expression of many apoptotic genes and to the down-regulation prosurvival genes, such as Bcl-2 [30].
(§5) FIGURE 4 CP induces ER stress Western Blot analysis showing expression of GRP78 and CHOP in SEM (A) and in RS4;11 (B) cells. Cells were treated with CP 2.5 μM for the indicated times. (C) PCR analysis showing the induction of XBP1 splicing in SEM and RS4;11 cells. Cells were treated with CP (2.5 μM) or Tunicamycin (2 μg/ml) as positive control for 12 h.
Cells were treated with CP and, after different times, were collected, centrifuged and washed with ice cold phosphate-buffered saline (PBS). The pellet was then resuspended in lysis buffer as described. The protein concentration in the supernatant was determined using the BCA protein assay (Pierce, Italy). […]

XBP1 = assay: PCR analysis of XBP1 splicing; format: cell-based, human; details: CP 2.5 μM, 12 h
Description: as §4, §5
Cells were treated with CP and Tunicamycin as positive control, collected, centrifuged and washed with PBS. Total RNA was extracted from cells using Trizol (Life Technologies, Italy) as previously described. Primer pair used to amplified XBP1 isoforms: forward 5'-[…]-3', reverse 5'-[…]-3'. To separate isoforms, PCR products were run in 5% agarose gel.

F[P-](F)(F)(F)(F)F.OCP(CO)CO.OCP(CO)CO.OCP(CO)CO.OCP(CO)CO.[Cu+] [CP, [Cu(thp)4][PF6]]
pIC50 [1]: ~4.74 | pIC50 [2]: ~5.00 | pIC50 [3]: ~4.92 | pIC50 [4]: ~4.82 | onset of significant levels of Annexin-V positive cells (SEM and RS4;11 cells): ≥ 6 h | onset of increase in CHOP expression (CHOP): ≥ 3 h | XBP1 splicing (XBP1): induced XBP1 splicing in both cell lines
